# Laboratory results as given in ChEMBL document CHEMBL4393717, “Development of novel human lactate dehydrogenase A inhibitors: High-throughput screening, synthesis, and biological evaluations” (Eur J Med Chem, 2019).
# Activity calls are given as the source filed them. The rule behind the calls is not given here.
# Columns and labels:
# [1] = molecular target: T1, L-lactate dehydrogenase A chain (Homo sapiens, UniProt P00338); assay: Inhibition of recombinant human full-length N-terminal His-tagged LDHA (1 to 332 residues) expressed in Escherichia coli using sodium pyruvate as substrate incubated for 10 mins
# MIA PaCa-2 [2] = assay: Antiproliferative activity against human MIAPaCa2 cells assessed as reduction in cell viability incubated for 72 hrs by MTT assay; format: functional, cell-based; details: MIA PaCa-2, 72 h
# A549 = assay: Antiproliferative activity against human A549 cells assessed as reduction in cell viability at incubated for 72 hrs by MTT assay; format: functional, cell-based; details: A549, 72 h
# MIA PaCa-2 [3] = assay: Inhibition of colony formation in human MIAPaCa2 cells at 1 uM treated for 3 days and supplemented with fresh medium with out compound every 3 days measured after 15 days by crystal violet staining based assay; format: functional
# MIA PaCa-2 [4] = assay: Inhibition of colony formation in human MIAPaCa2 cells at 0.5 uM treated for 3 days and supplemented with fresh medium with out compound every 3 days measured after 15 days by crystal violet staining based assay; format: functional, cell-based
# MIA PaCa-2 [5] = assay: Induction of apoptosis in human MIAPaCa2 cells assessed as viable cells at 1 uM incubated for 12 hrs by annexin V and propidium iodide staining based flow cytometry analysis (reference value: 94.85 %); format: functional; details: MIA PaCa-2, 12 h, read-out: Activity
# MIA PaCa-2 [6] = assay: Induction of apoptosis in human MIAPaCa2 cells assessed as early apoptotic cells at 1 uM incubated for 12 hrs by annexin V and propidium iodide staining based flow cytometry analysis (reference value: 0.40 %); format: functional
# MIA PaCa-2 [7] = assay: Induction of apoptosis in human MIAPaCa2 cells assessed as late apoptotic cells at 1 uM incubated for 12 hrs by annexin V and propidium iodide staining based flow cytometry analysis (reference value: 3.21 %); format: functional
# MIA PaCa-2 [8] = assay: Induction of apoptosis in human MIAPaCa2 cells assessed as necrotic cells at 1 uM incubated for 12 hrs by annexin V and propidium iodide staining based flow cytometry analysis (reference value: 1.54 %); format: functional
# MIA PaCa-2 [9] = assay: Induction of apoptosis in human MIAPaCa2 cells assessed as viable cells at 5 uM incubated for 12 hrs by annexin V and propidium iodide staining based flow cytometry analysis (reference value: 94.85 %); format: functional; details: MIA PaCa-2, 12 h, read-out: Activity
# MIA PaCa-2 [10] = assay: Induction of apoptosis in human MIAPaCa2 cells assessed as early apoptotic cells at 5 uM incubated for 12 hrs by annexin V and propidium iodide staining based flow cytometry analysis (reference value: 0.40 %); format: functional
# MIA PaCa-2 [11] = assay: Induction of apoptosis in human MIAPaCa2 cells assessed as late apoptotic cells at 5 uM incubated for 12 hrs by annexin V and propidium iodide staining based flow cytometry analysis (reference value: 3.21 %); format: functional
# MIA PaCa-2 [12] = assay: Induction of apoptosis in human MIAPaCa2 cells assessed as necrotic cells at 5 uM incubated for 12 hrs by annexin V and propidium iodide staining based flow cytometry analysis (reference value: 1.54 %); format: functional
# MIA PaCa-2 [13] = assay: Induction of apoptosis in human MIAPaCa2 cells assessed as viable cells at 10 uM incubated for 12 hrs by annexin V and propidium iodide staining based flow cytometry analysis (reference value: 94.85 %); format: functional; details: MIA PaCa-2, 12 h, read-out: Activity
# MIA PaCa-2 [14] = assay: Induction of apoptosis in human MIAPaCa2 cells assessed as early apoptotic cells at 10 uM incubated for 12 hrs by annexin V and propidium iodide staining based flow cytometry analysis (reference value: 0.40 %); format: functional
# MIA PaCa-2 [15] = assay: Induction of apoptosis in human MIAPaCa2 cells assessed as late apoptotic cells at 10 uM incubated for 12 hrs by annexin V and propidium iodide staining based flow cytometry analysis (reference value: 3.21 %); format: functional
# MIA PaCa-2 [16] = assay: Induction of apoptosis in human MIAPaCa2 cells assessed as necrotic cells at 10 uM incubated for 12 hrs by annexin V and propidium iodide staining based flow cytometry analysis (reference value: 1.54 %); format: functional
# MIA PaCa-2 [17] = assay: Induction of apoptosis in human MIAPaCa2 cells incubated for 12 hrs by Annexin V-FITC/propidium iodide staining based flow cytometry; format: functional, cell-based
# MIA PaCa-2 [18] = assay: Cell cycle arrest in human MIAPaCa2 cells assessed as accumulation at G1 phase at 1 uM incubated for 24 hrs by propidium iodide staining based flow cytometry (reference value: 56.01%); format: functional
# MIA PaCa-2 [19] = assay: Cell cycle arrest in human MIAPaCa2 cells assessed as accumulation at S phase at 1 uM incubated for 24 hrs by propidium iodide staining based flow cytometry (reference value: 12.99%); format: functional
# MIA PaCa-2 [20] = assay: Cell cycle arrest in human MIAPaCa2 cells assessed as accumulation at G2 phase at 1 uM incubated for 24 hrs by propidium iodide staining based flow cytometry (reference value: 31.00%); format: functional
# MIA PaCa-2 [21] = assay: Cell cycle arrest in human MIAPaCa2 cells assessed as accumulation at G1 phase at 5 uM incubated for 24 hrs by propidium iodide staining based flow cytometry (reference value: 56.01%); format: functional
# MIA PaCa-2 [22] = assay: Cell cycle arrest in human MIAPaCa2 cells assessed as accumulation at S phase at 5 uM incubated for 24 hrs by propidium iodide staining based flow cytometry (reference value: 12.99%); format: functional
# MIA PaCa-2 [23] = assay: Cell cycle arrest in human MIAPaCa2 cells assessed as accumulation at G2 phase at 5 uM incubated for 24 hrs by propidium iodide staining based flow cytometry (reference value: 31.00%); format: functional
# MIA PaCa-2 [24] = assay: Cell cycle arrest in human MIAPaCa2 cells assessed as accumulation at G1 phase at 10 uM incubated for 24 hrs by propidium iodide staining based flow cytometry (reference value: 56.01%); format: functional
# MIA PaCa-2 [25] = assay: Cell cycle arrest in human MIAPaCa2 cells assessed as accumulation at S phase at 10 uM incubated for 24 hrs by propidium iodide staining based flow cytometry (reference value: 12.99%); format: functional
# MIA PaCa-2 [26] = assay: Cell cycle arrest in human MIAPaCa2 cells assessed as accumulation at G2 phase at 10 uM incubated for 24 hrs by propidium iodide staining based flow cytometry (reference value: 31.00%); format: functional
# MIA PaCa-2 [27] = assay: Cell cycle arrest in human MIAPaCa2 cells assessed as increase in accumulation at G2 phase incubated for 24 hrs by propidium iodide staining based flow cytometry; format: functional
# [28] = molecular target: T1, L-lactate dehydrogenase A chain; assay: Inhibition of LDHA in human MIAPaCa2 cells assessed as switch of pyruvate metabolism from lactate production to oxidative phosphorylation by measuring reduction in lactate formation at 1 to 10 uM incubated for 4 hrs; format: cell-based
# [29] = molecular target: T1, L-lactate dehydrogenase A chain; assay: Inhibition of LDHA in human MIAPaCa2 cells assessed as switch of pyruvate metabolism from lactate production to oxidative phosphorylation by measuring decrease in extracellular acidification rate at 1 to 10 uM incubated for 4 hrs; format: cell-based
# [30] = molecular target: T1, L-lactate dehydrogenase A chain; assay: Inhibition of LDHA in human MIAPaCa2 cells assessed as switch of pyruvate metabolism from lactate production to oxidative phosphorylation by measuring increase in oxygen consumption rate at 1 to 10 uM incubated for 4 hrs; format: cell-based
# MIA PaCa-2 [31] = assay: Antitumor activity against human MIAPaCa2 cells xenografted in nude mouse assessed as reduction in tumor growth at 10 mg/kg administered once daily for 21 days measured twice a week; format: functional, organism-based
# MIA PaCa-2 [32] = assay: Antitumor activity against human MIAPaCa2 cells xenografted in mouse assessed as reduction in tumor weight at 10 mg/kg administered once daily for 21 days measured twice a week; format: functional, organism-based
# [33] = Toxicity in nude mouse xenografted with human MIAPaCa2 cells assessed as reduction in body weight at 10 mg/kg administered once daily for 21 days measured twice a week; format: organism-based; details: in vivo, 504 h
# MIA PaCa-2 [34] = assay: Inhibition of colony formation in human MIAPaCa2 cells treated for 3 days and supplemented with fresh medium with out compound every 3 days measured after 15 days by crystal violet staining based assay; format: functional, cell-based
compound,measurement,setting,value
O=C(c1ccco1)N1CCN(Cc2cc(=O)c(OCc3ccccc3F)co2)CC1,EC50,[1],90 nM
same,IC50,MIA PaCa-2 [2],2100 nM
same,IC50,A549,7.8 µM
same,inhibition at 1 µM,MIA PaCa-2 [3],100%
same,inhibition,MIA PaCa-2 [4],Active
same,viability at 1 µM,MIA PaCa-2 [5],89.8%
same,Activity,MIA PaCa-2 [6],1.14%
same,Activity,MIA PaCa-2 [7],5.79%
same,Activity,MIA PaCa-2 [8],3.23%
same,viability at 5 µM,MIA PaCa-2 [9],66.6%
same,Activity,MIA PaCa-2 [10],3.47%
same,Activity,MIA PaCa-2 [11],19.86%
same,Activity,MIA PaCa-2 [12],10.1%
same,viability at 10 µM,MIA PaCa-2 [13],55.1%
same,Activity,MIA PaCa-2 [14],3.79%
same,Activity,MIA PaCa-2 [15],27.68%
same,Activity,MIA PaCa-2 [16],13.38%
same,Activity,MIA PaCa-2 [17],Dose-dependent effect
same,Activity,MIA PaCa-2 [18],49.19%
same,Activity,MIA PaCa-2 [19],12.29%
same,Activity,MIA PaCa-2 [20],38.52%
same,Activity,MIA PaCa-2 [21],44.51%
same,Activity,MIA PaCa-2 [22],13.37%
same,Activity,MIA PaCa-2 [23],42.12%
same,Activity,MIA PaCa-2 [24],36.21%
same,Activity,MIA PaCa-2 [25],3.8%
same,Activity,MIA PaCa-2 [26],59.99%
same,Activity,MIA PaCa-2 [27],Dose-dependent effect
same,inhibition,[28],Active
same,inhibition,[29],Active
same,inhibition,[30],Active
same,Activity,MIA PaCa-2 [31],Active
same,Activity,MIA PaCa-2 [32],Active
same,Activity,[33],Non-Toxic
same,inhibition,MIA PaCa-2 [34],Dose-dependent effect
